GI50 and TGI data for ten molecules are collected here from PubChem BioAssay (NCI).

“And” between values parts separate entries of the source, which are not always exact repeats. Equal values may be shown once.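 48-hour exposure; five concentrations; linearly interpolated endpoints. The concentration for 50% growth inhibition is given as GI50. The concentration for full growth arrest is given as TGI.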

Common to all, as to test: NCI anticancer screen, dose series, 48 h
In experiment [1] the test system is RXF 393 renal.
The test system of experiment [2] is T-47D breast.
The test system of experiment [3] is SW-620 colon.
Experiment [4] has as its system SR leukemia.
Experiment [5] has as its system NCI-H23 lung.
Experiment [6] relates to A549 NSCLC.
For experiment [7], the system named is HOP-92 NSCLC.
In experiment [8] the test system is NCI-H522 lung.
The test system of experiment [9] is LXFL 529 NSCLC.

Take `Cc1ccc(-c2nc(N3CCNCC3)c3oc(-c4ccccc4)nc3n2)cc1`: the GI50 was 1.7 µM in experiment [1]; 1.81 µM in [2]; 2.06 µM in [3]; 1.26 µM in [4]; 3.07 µM in experiment [5]; 1.66 µM in [6]. Also, the values for the GI50 in experiment [7] and in experiment [8] were 1.66 µM and 1.64 µM, respectively. Moreover, the TGI in experiment [1] amounted to 3.19 µM; in experiment [2], 3.83 µM; in experiment [3], 3.88 µM; in experiment [4], 3.24 µM; in experiment [5] it was 16.7 µM; in experiment [6] it was 3.13 µM. The TGI in experiment [7] is 3.36 µM; in experiment [8], 3.43 µM.
In the case of `O=C1C=CC(=Nc2cccc3c(N=C4C=CC(=O)O4)cccc23)O1`, the TGI is 50 µM in [1]; more than 100 µM in [2]; 34.3 µM in experiment [3]; 48.1 µM in experiment [4]; more than 100 µM in experiment [5]; more than 100 µM in [6]. In addition, the TGI was more than 100 µM in [7] and 34.3 µM in experiment [8].
`CC(C)(C)NC(=O)[C@H]1CC[C@H]2[C@@H]3CC[C@H]4NC(=O)C=C[C@]4(C)[C@H]3CC[C@]12C`: the GI50 in [1] is more than 100 µM; in experiment [2] it was > 100 µM and 67.2 µM; in experiment [3] it was more than 100 µM; in experiment [4] it was more than 100 µM; in experiment [5] it was more than 100 µM; in experiment [6] it was more than 100 µM. The GI50 is 30.3 µM in [7]; 23.2 µM and > 100 µM in experiment [8]. The TGI in [1], in [2], in experiment [3], in [4], in experiment [5] and in experiment [6] was more than 100 µM each time. Besides, the TGI in [7] and in experiment [8] was more than 100 µM throughout.
For the molecule `COc1ccc(C(=O)O[C@H]2[C@H](O[C@H]3[C@@H](O)COC(O[C@H]4C[C@H]5[C@@H]6CC=C7C[C@@H](O)CC[C@]7(C)[C@H]6CC[C@]5(C)[C@H]4[C@H](C)C(=O)CCC(C)C)[C@@H]3OC(C)=O)OC[C@@H](O)[C@@H]2O)c(C)c1` (some centres undefined), the GI50 in [1] is less than 0.01 µM; in experiment [2], 0.0133 µM; in experiment [3] it was less than 0.01 µM; in experiment [4], less than 0.01 µM; in experiment [5], 0.0574 µM; in experiment [6], less than 0.01 µM. For the same molecule, the results for the GI50 in experiment [7] and in experiment [8] were less than 0.01 µM and 0.0114 µM, respectively. The TGI in [1] was less than 0.01 µM; in [2], 19.1 µM; in [3] it was 0.187 µM; in experiment [4], more than 100 µM; in experiment [5] it was 15.4 µM; in experiment [6], more than 100 µM. For the same molecule, the figures for the TGI in experiment [7] and in experiment [8] were 0.0866 µM and 0.607 µM, respectively.
For the molecule `NC1=NC(=O)/C(=C/c2ccc3ncccc3c2)S1`, the GI50 in experiment [1] was more than 25 µM; in experiment [2], more than 15.6 µM; in experiment [3], more than 25 µM; in experiment [4], 7.11 µM; in experiment [5], more than 25 µM; in experiment [6] it was more than 25 µM. Moreover, the GI50 in [7] is more than 25 µM; in experiment [8], more than 18.4 µM. Besides, the TGI in [1], in experiment [2], in experiment [3], in [4], in experiment [5] and in [6] was more than 25 µM each time. The TGI in [7] and in experiment [8] was more than 25 µM throughout.
Take `CC(=O)[CH-]C(=O)c1ccccc1.CC(=O)[CH-]C(=O)c1ccccc1.CC(C)CCC[C@H](C)C1CCC2[C@@H]3CC=C4C[C@@H]([O-])CC[C@]4(C)C3CC[C@@]21C.CC(C)CCC[C@H](C)C1CCC2[C@@H]3CC=C4C[C@@H]([O-])CC[C@]4(C)C3CC[C@@]21C.Cl.[Ti+4]` (some centres undefined): the GI50 in experiment [1], in experiment [3], in experiment [9], in [5], in [6] and in [8] was more than 25 µM each time. Moreover, the TGI in [1], in [3], in [9], in experiment [5], in experiment [6] and in experiment [8] was more than 25 µM in each case.
In the case of `CCN(CC)CCN1C(=O)C2C3C(=O)CC(C)(CC3C)C2C1=O` (centres undefined), the GI50 in experiment [1], in [2], in [3], in experiment [4], in experiment [5] and in [6] was more than 100 µM throughout. For the same molecule, the GI50 in [7] and in experiment [8] was more than 100 µM each time. Also, the TGI in experiment [1], in experiment [2], in experiment [3], in experiment [4], in [5] and in [6] was more than 100 µM each time. The TGI in [7] and in experiment [8] was more than 100 µM each time.
On to `Cc1ccc(Cl)cc1NC(=O)c1cc2ccccc2cc1O`, for which the GI50 in [1] is 0.55 µM; in [2], 1.14 µM; in experiment [3] it was 0.414 µM; in experiment [4] it was 0.217 µM; in experiment [5], 0.234 µM; in experiment [6], 0.418 µM. Moreover, the GI50 in experiment [7] was 0.222 µM; in experiment [8] it was 0.231 µM. The TGI is 2.23 µM in experiment [1]; 5.06 µM in experiment [2]; more than 100 µM in experiment [3]; 1.21 µM in experiment [4]; 0.707 µM in experiment [5]; more than 100 µM in experiment [6]. Besides, the TGI amounted to 0.724 µM in experiment [7] and 0.719 µM in experiment [8].
Consider `C(=Nc1cnc2ccccc2c1)c1ccc2ccccc2n1`, for which the TGI in experiment [1] was more than 100 µM; in [2], more than 100 µM; in experiment [3], more than 100 µM; in [4] it was 71.4 µM; in [5], more than 100 µM; in experiment [6], more than 100 µM. Also, the TGI in [7] and in experiment [8] was more than 100 µM in each case.
With `Nc1nnnc2nc[nH]c12`, the GI50 is 1.35 µM in experiment [1]; 0.297 µM in experiment [2]; 0.78 µM in experiment [3]; 3.19 µM in [5]; 6.42 µM in [6]; 0.622 µM in [7]. Moreover, in [8], the GI50 is 2.02 µM. Moreover, the TGI was more than 100 µM in experiment [1]; 2.55 µM in [2]; more than 100 µM in experiment [3]; more than 100 µM in [4]; 40.9 µM in [5]; more than 100 µM in experiment [6]. Moreover, the TGI is more than 100 µM in experiment [7] and 17 µM in experiment [8].
